From paper PMC12113356, “Novel Anti-MRSA Peptide from Mangrove-Derived Virgibacillus chiguensis FN33 Supported by Genomics and Molecular Dynamics” (Marine Drugs, 2025)
Converted amounts (≈) assume the structure as drawn. Peptide text beside a SMILES is read from it.

Assays:
[1] = tested on: MRSA strain 2468; assay: Compatibility with surfactants (activity retention by agar well diffusion); type: physicochemical, Staphylococcus aureus; settings: 32 µg/mL, agar well diffusion read-out, % of untreated sample, mean ± SD, n = 3
Description: (§1) The AMP solution was prepared in sterile purified water and adjusted to a final concentration of 32 µg/mL. To determine thermal stability, the AMP was exposed to temperatures of 30, 40, 60, 80, and 100 °C, as well as to autoclaving at 121 °C and 15 psi for 15 and 30 min. The susceptibility of the AMP to enzymatic degradation was examined by treating it with proteinase K, trypsin, and α-chymotrypsin (each at 1 mg/mL, Sigma-Aldrich, Warren, MI, USA), representing different proteolytic mechanisms. The AMP’s compatibility with surfactants was assessed by incubating it with 1% SDS, 1% CTAB, and 1% Triton X-100 (AppliChem GmbH, Darmstadt, Germany). Additionally, the effect of pH variations on AMP integrity was tested by adjusting the solution to pH 1, 4, 8, 10, and 14. The pH was neutralized to the original pH after incubation before conducting antibacterial activity tests. […] Stability data were expressed as residual activity percentages relative to the untreated sample (mean ± SD), and statistical significance was evaluated using two-way ANOVA and Tukey’s post hoc test, with a p-value < 0.05 considered significant.

[2] = molecular target: T1, α-chymotrypsin (Bos taurus, UniProt P00766); assay: Stability to protease digestion (activity retention); type: in vitro ADME; settings: 32 µg/mL, α-chymotrypsin 1 mg/mL, agar well diffusion read-out vs MRSA strain 2468, % of untreated sample, mean ± SD, n = 3
T1 construct: purchased Sigma-Aldrich
Description: as §1

[3] = molecular target: T2, proteinase K (Parengyodontium album, UniProt P06873); assay: as above; type: in vitro ADME; settings: 32 µg/mL, proteinase K 1 mg/mL, agar well diffusion read-out vs MRSA strain 2468, % of untreated sample, mean ± SD, n = 3
T2 construct: purchased Sigma-Aldrich
T2 sequence (P06873 106-384): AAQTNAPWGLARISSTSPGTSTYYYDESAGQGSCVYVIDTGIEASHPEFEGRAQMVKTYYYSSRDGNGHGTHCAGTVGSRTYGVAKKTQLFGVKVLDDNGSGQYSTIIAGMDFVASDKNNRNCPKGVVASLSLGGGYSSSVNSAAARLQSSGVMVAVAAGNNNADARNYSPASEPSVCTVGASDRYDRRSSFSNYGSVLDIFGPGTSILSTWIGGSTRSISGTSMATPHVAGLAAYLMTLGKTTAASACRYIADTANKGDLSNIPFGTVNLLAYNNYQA
Description: as §1

[4] = DPPH radical-scavenging assay; settings: 0.1 mM DPPH, 25 °C, 30 min in darkness, absorbance 517 nm; mean ± SD, n = 3
Description: A 200 μL sample or ascorbic acid (Gammaco Ltd., Bangkok, Thailand) was added to 2 mL of 0.1 mM DPPH solution (Merck Ltd., Bangkok, Thailand) and incubated at 25 °C in darkness for 30 min. The DPPH color change from purple to pale yellow was observed, and the absorbance at 517 nm was measured using a UV–visible spectrophotometer.

[5] = tested on: MRSA strain 2468; assay: Thermal stability (activity retention by agar well diffusion); type: physicochemical, Staphylococcus aureus; settings: for Antibacterial Activity Retention of FN33 AMP (%) Against MRSA Strain 2468: 32 µg/mL in water, agar well diffusion read-out, % of untreated sample, mean ± SD, n = 3
Description: as §1

[6] = tested on: S. aureus TISTR 517; assay: Scanning electron microscopy of treated cells; type: cell-based, Staphylococcus aureus; settings: 1× MIC, 16 h / 18 h (figure legend), 30,000× magnification
Source text: (§2) SEM was used to examine morphological alterations in the bacterial cells. […] This appearance reflected their natural cellular structure.
(§3) Figure 5 SEM images captured at 30,000× magnification. […] The non-treatment condition served as a negative control.

[7] = tested on: MRSA strain 2468; assay: Scanning electron microscopy of treated cells; type: cell-based, Staphylococcus aureus; settings: 1× MIC, 16 h / 18 h (figure legend), 30,000× magnification
Source text: as §2, §3

[8] = tested on: MRSA strain 2468; assay: Stability to pH variation (activity retention by agar well diffusion); type: physicochemical, Staphylococcus aureus; settings: 32 µg/mL, neutralized before test, agar well diffusion read-out, % of untreated sample, mean ± SD, n = 3
Description: as §1

[9] = tested on: egg albumin; assay: Albumin denaturation assay (in vitro anti-inflammatory); type: biochemical, hen; settings: PBS pH 7.2, 37 °C 15 min then 70 °C 5 min, OD 660 nm, mean ± SD, n = 3
Description: The reaction mixture consisted of 25 μL of egg albumin (derived from fresh hen eggs), 350 μL of PBS (pH 7.2, 0.1 M), and 250 μL of AMP or PBS (used as a reference). The mixtures were pre-incubated at 37 °C for 15 min, followed by denaturation at 70 °C for 5 min. After a 5 min cooling period on ice, the optical density (OD) at 660 nm was measured using a spectrophotometer. […] The percentage inhibition of albumin denaturation was calculated using the following equation:Inhibition of albumin denaturation (%) = [1 − (Absorbancesample/Absorbancecontrol)] × 100

CC(C)C[C@H](NC(=O)[C@H](CC(=O)O)NC(=O)[C@H](CS)NC(=O)[C@H](Cc1c[nH]cn1)NC(=O)[C@H](CS)NC(=O)[C@@H]1CCCN1C(=O)[C@@H](NC(=O)[C@H](CC(C)C)NC(=O)[C@H](CS)NC(=O)CNC(=O)[C@H](Cc1c[nH]c2ccccc12)NC(=O)[C@@H](NC(=O)[C@H](CC(=O)O)NC(=O)[C@@H](NC(=O)CNC(=O)[C@H](CS)NC(=O)CNC(=O)CNC(=O)[C@@H](N)CCC(=O)O)C(C)C)[C@@H](C)O)[C@@H](C)O)C(=O)N[C@@H](Cc1ccccc1)C(=O)N[C@@H](CS)C(=O)N[C@H](C(=O)N[C@H](C(=O)O)[C@@H](C)O)[C@@H](C)O [FN33 AMP] (H-EGGCGVDTWGCLTPCHCDLFCTT-OH)
Antibacterial Activity Retention of FN33 AMP (%) Against MRSA Strain 2468 ([1]; with CTAB 1% w/v, 1 h): 93.19 ± 0.52 % | Antibacterial Activity Retention of FN33 AMP (%) Against MRSA Strain 2468 ([1]; with CTAB 1% w/v, 6 h): 93.17 ± 0.48 % | Antibacterial Activity Retention of FN33 AMP (%) Against MRSA Strain 2468 ([1]; with CTAB 1% w/v, 12 h): 92.51 ± 0.69 *^,† % | Antibacterial Activity Retention of FN33 AMP (%) Against MRSA Strain 2468 ([1]; with SDS 1% w/v, 1 h): 117.08 ± 0.78 % | Antibacterial Activity Retention of FN33 AMP (%) Against MRSA Strain 2468 ([1]; with SDS 1% w/v, 6 h): 117.39 ± 0.96 % | Antibacterial Activity Retention of FN33 AMP (%) Against MRSA Strain 2468 ([1]; with SDS 1% w/v, 12 h): 115.95 ± 0.57 % | Antibacterial Activity Retention of FN33 AMP (%) Against MRSA Strain 2468 ([1]; with Triton X-100 1% w/v, 1 h): 81.23 ± 1.04 % | Antibacterial Activity Retention of FN33 AMP (%) Against MRSA Strain 2468 ([1]; with Triton X-100 1% w/v, 6 h): 81.69 ± 0.38 % | Antibacterial Activity Retention of FN33 AMP (%) Against MRSA Strain 2468 ([1]; with Triton X-100 1% w/v, 12 h): 81.30 ± 0.72 % | Antibacterial Activity Retention of FN33 AMP (%) Against MRSA Strain 2468 ([2]; 1 h): 0.00 ± 0.00 % | Antibacterial Activity Retention of FN33 AMP (%) Against MRSA Strain 2468 ([2]; 6 h): 0.00 ± 0.00 % | Antibacterial Activity Retention of FN33 AMP (%) Against MRSA Strain 2468 ([2]; 12 h): 0.00 ± 0.00 % | Antibacterial Activity Retention of FN33 AMP (%) Against MRSA Strain 2468 ([3]; 1 h): 0.00 ± 0.00 % | Antibacterial Activity Retention of FN33 AMP (%) Against MRSA Strain 2468 ([3]; 6 h): 0.00 ± 0.00 % | Antibacterial Activity Retention of FN33 AMP (%) Against MRSA Strain 2468 ([3]; 12 h): 0.00 ± 0.00 % | IC50 (DPPH radical scavenging) [4]: 11.66 ± 2.87 µg/mL (≈ 4.82 µM) | Antibacterial Activity Retention of FN33 AMP (%) Against MRSA Strain 2468 ([5]; 30 °C, 1 h): 100.00 ± 0.66% | Antibacterial Activity Retention of FN33 AMP (%) Against MRSA Strain 2468 ([5]; 30 °C, 6 h): 100.00 ± 0.17% | Antibacterial Activity Retention of FN33 AMP (%) Against MRSA Strain 2468 ([5]; 30 °C, 12 h): 99.79 ± 0.47% | Antibacterial Activity Retention of FN33 AMP (%) Against MRSA Strain 2468 ([5]; 40 °C, 1 h): 100.08 ± 0.48% | Antibacterial Activity Retention of FN33 AMP (%) Against MRSA Strain 2468 ([5]; 40 °C, 6 h): 100.02 ± 0.35% | Antibacterial Activity Retention of FN33 AMP (%) Against MRSA Strain 2468 ([5]; 40 °C, 12 h): 100.23 ± 0.28% | Antibacterial Activity Retention of FN33 AMP (%) Against MRSA Strain 2468 ([5]; 60 °C, 1 h): 98.58 ± 1.74% | Antibacterial Activity Retention of FN33 AMP (%) Against MRSA Strain 2468 ([5]; 60 °C, 6 h): 93.53 ± 1.27 *^,† % | Antibacterial Activity Retention of FN33 AMP (%) Against MRSA Strain 2468 ([5]; 60 °C, 12 h): 86.98 ± 0.79 *^,† % | Antibacterial Activity Retention of FN33 AMP (%) Against MRSA Strain 2468 ([5]; 80 °C, 1 h): 95.17 ± 0.43 % | Antibacterial Activity Retention of FN33 AMP (%) Against MRSA Strain 2468 ([5]; 80 °C, 6 h): 90.91 ± 0.26 *^,† % | Antibacterial Activity Retention of FN33 AMP (%) Against MRSA Strain 2468 ([5]; 80 °C, 12 h): 82.46 ± 0.55 *^,† % | Antibacterial Activity Retention of FN33 AMP (%) Against MRSA Strain 2468 ([5]; 100 °C, 1 h): 90.83 ± 0.67 % | Antibacterial Activity Retention of FN33 AMP (%) Against MRSA Strain 2468 ([5]; 100 °C, 6 h): 83.38 ± 0.83 *^,† % | Antibacterial Activity Retention of FN33 AMP (%) Against MRSA Strain 2468 ([5]; 100 °C, 12 h): 79.97 ± 0.06 *^,† % | Antibacterial Activity Retention of FN33 AMP (%) Against MRSA Strain 2468 ([5]; autoclave 121 °C and 15 psi, 15 min): 72.82 ± 0.53 % | Antibacterial Activity Retention of FN33 AMP (%) Against MRSA Strain 2468 ([5]; autoclave 121 °C and 15 psi, 30 min): 65.87 ± 0.82 *^,† % | activity lost due to elevated temperatures ([5]; 60 °C, 80 °C and 100 °C, over 12 h): up to 20% | morphological changes under SEM [6]: dented and rough surface with fewer lysed cells | morphological changes under SEM [7]: greater number of completely lysed cells | Antibacterial Activity Retention of FN33 AMP (%) Against MRSA Strain 2468 ([8]; pH 1, 1 h): 74.56 ± 0.69 % | Antibacterial Activity Retention of FN33 AMP (%) Against MRSA Strain 2468 ([8]; pH 1, 6 h): 76.51 ± 0.39 % | Antibacterial Activity Retention of FN33 AMP (%) Against MRSA Strain 2468 ([8]; pH 1, 12 h): 72.85 ± 0.22 *^,† % | Antibacterial Activity Retention of FN33 AMP (%) Against MRSA Strain 2468 ([8]; pH 4, 1 h): 97.42 ± 0.65 % | Antibacterial Activity Retention of FN33 AMP (%) Against MRSA Strain 2468 ([8]; pH 4, 6 h): 96.19 ± 0.21 % | Antibacterial Activity Retention of FN33 AMP (%) Against MRSA Strain 2468 ([8]; pH 4, 12 h): 95.30 ± 0.69 *^,† % | Antibacterial Activity Retention of FN33 AMP (%) Against MRSA Strain 2468 ([8]; pH 8, 1 h): 99.53 ± 0.41% | Antibacterial Activity Retention of FN33 AMP (%) Against MRSA Strain 2468 ([8]; pH 8, 6 h): 98.03 ± 0.65% | Antibacterial Activity Retention of FN33 AMP (%) Against MRSA Strain 2468 ([8]; pH 8, 12 h): 98.76 ± 0.81% | Antibacterial Activity Retention of FN33 AMP (%) Against MRSA Strain 2468 ([8]; pH 10, 1 h): 74.63 ± 0.79 % | Antibacterial Activity Retention of FN33 AMP (%) Against MRSA Strain 2468 ([8]; pH 10, 6 h): 73.12 ± 1.04 *^,† % | Antibacterial Activity Retention of FN33 AMP (%) Against MRSA Strain 2468 ([8]; pH 10, 12 h): 69.46 ± 0.77 *^,† % | Antibacterial Activity Retention of FN33 AMP (%) Against MRSA Strain 2468 ([8]; pH 14, 1 h): 68.58 ± 0.45 % | Antibacterial Activity Retention of FN33 AMP (%) Against MRSA Strain 2468 ([8]; pH 14, 6 h): 66.80 ± 0.27 *^,† % | Antibacterial Activity Retention of FN33 AMP (%) Against MRSA Strain 2468 ([8]; pH 14, 12 h): 65.80 ± 0.84 *^,† % | % Inhibition of Albumin Denaturation ([9]; 50 µg/mL): 4.85 ± 0.93 *^,† % | % Inhibition of Albumin Denaturation ([9]; 100 µg/mL): 17.75 ± 0.97 *^,† % | % Inhibition of Albumin Denaturation ([9]; 250 µg/mL): 34.39 ± 1.82 % | % Inhibition of Albumin Denaturation ([9]; 500 µg/mL): 57.16 ± 1.06 %
